Results published in patent US20170166598A1, “HETEROARYL COMPOUNDS FOR KINASE INHIBITION” (ARIAD PHARMACEUTICALS, INC., priority 2014, published 2017).

Key:
Format in all cases: cell-based
[1] = target: T1, human EGFR E746-A750 deletion and T790M Mutation (Homo sapiens, UniProt P00533, DEL746-750/T790M); assay: Ba/F3-EGFR-Del/T790M cell anti-proliferative assay (CellTiter 96 MTS, 72 h); conditions: Ba/F3-EGFR-Del/T790M cells
T1 construct: expressed in transfected cells; host or cells: Ba/F3 (murine pro-B) cells transduced with lentivirus from pLVX-IRES puro
T1 sequence (P00533 with tags, fused parts or gaps DEL746-750/T790M): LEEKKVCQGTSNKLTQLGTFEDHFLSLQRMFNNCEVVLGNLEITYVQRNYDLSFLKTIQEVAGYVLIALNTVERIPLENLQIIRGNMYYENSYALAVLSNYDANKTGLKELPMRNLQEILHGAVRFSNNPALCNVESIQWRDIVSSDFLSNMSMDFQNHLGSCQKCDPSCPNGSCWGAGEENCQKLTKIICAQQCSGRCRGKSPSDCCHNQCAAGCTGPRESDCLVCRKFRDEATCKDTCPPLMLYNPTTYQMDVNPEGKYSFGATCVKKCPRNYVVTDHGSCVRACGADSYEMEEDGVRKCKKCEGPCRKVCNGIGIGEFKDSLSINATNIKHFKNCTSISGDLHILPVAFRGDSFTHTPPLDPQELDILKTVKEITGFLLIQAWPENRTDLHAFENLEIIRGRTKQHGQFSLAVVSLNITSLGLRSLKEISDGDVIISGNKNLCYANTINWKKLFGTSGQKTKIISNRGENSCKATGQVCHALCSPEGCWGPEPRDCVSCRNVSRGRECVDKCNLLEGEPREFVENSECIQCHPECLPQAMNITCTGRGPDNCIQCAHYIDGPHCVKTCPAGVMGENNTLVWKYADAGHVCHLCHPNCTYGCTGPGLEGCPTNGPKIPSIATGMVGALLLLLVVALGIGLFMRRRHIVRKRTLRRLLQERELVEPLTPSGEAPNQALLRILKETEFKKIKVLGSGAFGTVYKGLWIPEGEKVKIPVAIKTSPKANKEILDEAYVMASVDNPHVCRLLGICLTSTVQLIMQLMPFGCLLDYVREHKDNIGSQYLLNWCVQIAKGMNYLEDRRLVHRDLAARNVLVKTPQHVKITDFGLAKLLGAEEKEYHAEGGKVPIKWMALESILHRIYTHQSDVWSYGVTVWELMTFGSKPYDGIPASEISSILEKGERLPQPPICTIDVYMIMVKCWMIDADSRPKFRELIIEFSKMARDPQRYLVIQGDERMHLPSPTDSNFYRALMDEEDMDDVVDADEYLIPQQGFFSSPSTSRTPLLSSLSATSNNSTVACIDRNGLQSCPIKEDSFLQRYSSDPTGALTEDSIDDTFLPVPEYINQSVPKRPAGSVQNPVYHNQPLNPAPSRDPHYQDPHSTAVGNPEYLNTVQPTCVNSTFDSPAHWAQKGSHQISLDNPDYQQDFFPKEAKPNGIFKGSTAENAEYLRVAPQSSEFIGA
Protocol: An expression vector, pLVX-IRES puro (Clontech) coding for human EGFR E746-A750 deletion and T790M Mutation, was transfected into HEK293 cells by the Trans-Lentiviral ORF Packaging System (Thermo Scientific), to produce virus encoding EGFR exon 19 deletion and T790M mutations. Ba/F3 (DSMZ) cells maintained in RPMI 1640 medium supplemented with 10% fetal bovine serum, 200 μM L-glutamine/200 μg/mL penicillin/200 μg/mL streptomycin (Life Technology) and 10 ng/mL IL-3 (R&D system), were infected by EGFR E746-A750 deletion and T790M Mutation virus and subsequently selected by puromycin (Life Technology) selection and IL-3 depletion. […] The anti-proliferative activity of compounds was determined as follows: BaF3-EGFR-Del/T790M cells seeded in 96 well plates (2500 cells/well) were treated with test compound (dissolved in DMSO) at a series of concentrations (4-fold dilution, top concentration: 10,000 nM). The plates were incubated for 72 h in a 37° C. incubator with 5% CO2, and the number of viable cells in each well were measured indirectly by CellTiter 96® Aqueous One Solution Cell Proliferation Assay (Promega; this assay is a colorimetric method for determining the number of viable cells through measurement of their metabolic activity by detection of enzymatic conversion of tetrazolium salts into blue formazan derivatives). Reagent (20 μL) was added into each well, and the plates were returned to the incubator for 2 h. The absorbance in each well was then measured at 490 nm using an Envision plate reader (Perkin Elmer).

[2] = target: T2, human EGFR exon 20 insertion NPG (H773_V774insNPG) (Homo sapiens, UniProt P00533, INS772GNP); assay: Ba/F3-EGFR-Exon20-NPG cell anti-proliferative assay (CellTiter 96 MTS, 72 h); conditions: Ba/F3-EGFR-Exon20-NPG cells
T2 construct: expressed in transfected cells; host or cells: Ba/F3 (murine pro-B) cells transduced with lentivirus from pLVX-IRES puro
T2 sequence (P00533 with tags, fused parts or gaps INS772GNP): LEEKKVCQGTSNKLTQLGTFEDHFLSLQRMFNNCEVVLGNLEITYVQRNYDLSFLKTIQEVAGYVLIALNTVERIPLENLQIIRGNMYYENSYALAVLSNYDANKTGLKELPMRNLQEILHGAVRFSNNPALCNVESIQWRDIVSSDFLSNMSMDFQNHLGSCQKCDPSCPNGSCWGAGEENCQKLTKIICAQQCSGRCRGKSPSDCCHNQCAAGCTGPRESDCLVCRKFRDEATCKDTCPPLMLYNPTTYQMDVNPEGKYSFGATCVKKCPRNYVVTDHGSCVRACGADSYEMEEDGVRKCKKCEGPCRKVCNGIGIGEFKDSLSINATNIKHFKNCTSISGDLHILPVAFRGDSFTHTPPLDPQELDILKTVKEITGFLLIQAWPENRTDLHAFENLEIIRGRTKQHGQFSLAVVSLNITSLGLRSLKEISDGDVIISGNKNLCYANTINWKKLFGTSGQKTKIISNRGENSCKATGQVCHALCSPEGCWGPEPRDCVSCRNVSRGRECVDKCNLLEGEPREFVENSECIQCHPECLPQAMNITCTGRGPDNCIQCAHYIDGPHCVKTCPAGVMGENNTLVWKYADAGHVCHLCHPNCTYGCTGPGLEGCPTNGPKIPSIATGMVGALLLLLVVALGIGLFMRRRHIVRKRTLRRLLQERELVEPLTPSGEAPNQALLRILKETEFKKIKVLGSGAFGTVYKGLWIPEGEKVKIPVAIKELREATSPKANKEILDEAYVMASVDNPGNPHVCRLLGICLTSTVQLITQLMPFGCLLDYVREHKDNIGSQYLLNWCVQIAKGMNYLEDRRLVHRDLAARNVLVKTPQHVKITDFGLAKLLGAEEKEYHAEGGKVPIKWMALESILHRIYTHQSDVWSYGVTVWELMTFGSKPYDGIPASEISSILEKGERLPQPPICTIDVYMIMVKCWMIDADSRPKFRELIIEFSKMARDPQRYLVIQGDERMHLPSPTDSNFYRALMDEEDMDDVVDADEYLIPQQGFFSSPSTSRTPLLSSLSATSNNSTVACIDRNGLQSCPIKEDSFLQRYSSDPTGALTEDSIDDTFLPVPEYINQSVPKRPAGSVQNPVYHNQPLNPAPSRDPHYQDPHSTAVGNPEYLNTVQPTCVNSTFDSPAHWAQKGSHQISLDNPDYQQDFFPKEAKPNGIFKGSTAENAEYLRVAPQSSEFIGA
Protocol: (§1) An expression vector, pLVX-IRES puro (Clontech) coding for human EGFR exon 20 insertions NPG (H773_V774insNPG) or ASV (V769_D770insASV), was transfected into HEK293 cells by the Trans-Lentiviral ORF Packaging System (Thermo Scientific), to produce virus encoding EGFR exon 20 insertions. Ba/F3 (DSMZ) cells maintained in RPMI 1640 medium supplemented with 10% fetal bovine serum, 200 μM L-glutamine/l 200 μg/mL penicillin/200 μg/mL streptomycin (Life Technology) and 10 ng/mL IL-3 (R&D system), were infected by EGFR Exon20 virus and subsequently selected by puromycin (Life Technology) selection and IL-3 depletion. […] The anti-proliferative activity of compounds were determined as follows: BaF3-EGFR-Exon20 cells (NPG or ASV) seeded in 96 well plates (2500 cells/well) were treated with test compound (dissolved in DMSO) at a series of concentrations (4-fold dilution, top concentration: 10,000 nM). The plates were incubated for 72 h in a 37° C. incubator with 5% CO2, and the number of viable cells in each well were measured indirectly by CellTiter 96® Aqueous One Solution Cell Proliferation Assay (Promega) This assay is a colorimetric method for determining the number of viable cells through measurement of their metabolic activity by detection of enzymatic conversion of tetrazolium salts into blue formazan derivatives. Reagent (20 μL) was added into each well, and the plates were returned to the incubator for 2 h. The absorbance in each well was then measured at 490 nm using an Envision plate reader (Perkin Elmer).

[3] = target: T3, human EGFR exon 20 insertion ASV (V769_D770insASV) (Homo sapiens, UniProt P00533, INS769ASV); assay: Ba/F3-EGFR-Exon20-ASV cell anti-proliferative assay (CellTiter 96 MTS, 72 h); conditions: Ba/F3-EGFR-Exon20-ASV cells
T3 construct: expressed in transfected cells; host or cells: Ba/F3 (murine pro-B) cells transduced with lentivirus from pLVX-IRES puro
T3 sequence (P00533 with tags, fused parts or gaps INS769ASV): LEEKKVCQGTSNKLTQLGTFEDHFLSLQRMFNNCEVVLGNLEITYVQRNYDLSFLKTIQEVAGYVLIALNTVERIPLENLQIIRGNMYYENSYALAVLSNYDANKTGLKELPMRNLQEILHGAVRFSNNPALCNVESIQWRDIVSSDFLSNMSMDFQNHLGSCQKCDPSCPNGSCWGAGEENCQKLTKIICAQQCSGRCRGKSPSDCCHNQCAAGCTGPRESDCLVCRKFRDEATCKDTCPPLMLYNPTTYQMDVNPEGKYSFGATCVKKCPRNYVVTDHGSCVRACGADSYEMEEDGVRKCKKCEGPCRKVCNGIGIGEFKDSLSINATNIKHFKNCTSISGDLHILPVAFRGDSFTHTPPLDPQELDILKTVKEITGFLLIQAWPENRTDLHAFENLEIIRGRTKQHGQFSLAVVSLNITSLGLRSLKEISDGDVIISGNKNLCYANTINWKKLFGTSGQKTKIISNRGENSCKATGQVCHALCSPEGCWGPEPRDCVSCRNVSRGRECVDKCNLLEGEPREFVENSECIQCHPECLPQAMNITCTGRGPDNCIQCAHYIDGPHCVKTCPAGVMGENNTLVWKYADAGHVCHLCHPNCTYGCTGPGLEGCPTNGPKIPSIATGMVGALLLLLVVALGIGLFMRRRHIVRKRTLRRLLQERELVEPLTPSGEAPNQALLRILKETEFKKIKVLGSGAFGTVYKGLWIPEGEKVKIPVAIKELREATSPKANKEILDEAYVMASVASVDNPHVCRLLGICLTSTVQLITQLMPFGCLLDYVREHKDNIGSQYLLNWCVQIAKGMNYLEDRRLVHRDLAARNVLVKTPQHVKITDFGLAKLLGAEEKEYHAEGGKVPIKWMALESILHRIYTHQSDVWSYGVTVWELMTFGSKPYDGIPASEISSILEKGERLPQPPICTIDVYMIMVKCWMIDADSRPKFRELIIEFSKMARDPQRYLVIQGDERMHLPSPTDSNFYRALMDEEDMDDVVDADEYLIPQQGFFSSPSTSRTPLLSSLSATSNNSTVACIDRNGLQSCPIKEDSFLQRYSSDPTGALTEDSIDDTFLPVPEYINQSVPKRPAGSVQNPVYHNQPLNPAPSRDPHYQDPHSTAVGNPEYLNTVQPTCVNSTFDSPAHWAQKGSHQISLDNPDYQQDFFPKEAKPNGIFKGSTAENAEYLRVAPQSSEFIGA
Protocol: as §1

[4] = target: T4, Her2 exon 20 YVMA insertion (A775_G776ins YVMA) (Homo sapiens, UniProt P04626, INS775YVMA); assay: Ba/F3-Her2 Exon20 YVMA cell anti-proliferative assay (CellTiter 96 MTS, 72 h); conditions: Ba/F3-Her2 Exon20 YVMA cells
T4 construct: expressed in transfected cells; host or cells: Ba/F3 (murine pro-B) cells transduced with lentivirus from pLVX-IRES puro
T4 sequence (P04626 with tags, fused parts or gaps INS775YVMA): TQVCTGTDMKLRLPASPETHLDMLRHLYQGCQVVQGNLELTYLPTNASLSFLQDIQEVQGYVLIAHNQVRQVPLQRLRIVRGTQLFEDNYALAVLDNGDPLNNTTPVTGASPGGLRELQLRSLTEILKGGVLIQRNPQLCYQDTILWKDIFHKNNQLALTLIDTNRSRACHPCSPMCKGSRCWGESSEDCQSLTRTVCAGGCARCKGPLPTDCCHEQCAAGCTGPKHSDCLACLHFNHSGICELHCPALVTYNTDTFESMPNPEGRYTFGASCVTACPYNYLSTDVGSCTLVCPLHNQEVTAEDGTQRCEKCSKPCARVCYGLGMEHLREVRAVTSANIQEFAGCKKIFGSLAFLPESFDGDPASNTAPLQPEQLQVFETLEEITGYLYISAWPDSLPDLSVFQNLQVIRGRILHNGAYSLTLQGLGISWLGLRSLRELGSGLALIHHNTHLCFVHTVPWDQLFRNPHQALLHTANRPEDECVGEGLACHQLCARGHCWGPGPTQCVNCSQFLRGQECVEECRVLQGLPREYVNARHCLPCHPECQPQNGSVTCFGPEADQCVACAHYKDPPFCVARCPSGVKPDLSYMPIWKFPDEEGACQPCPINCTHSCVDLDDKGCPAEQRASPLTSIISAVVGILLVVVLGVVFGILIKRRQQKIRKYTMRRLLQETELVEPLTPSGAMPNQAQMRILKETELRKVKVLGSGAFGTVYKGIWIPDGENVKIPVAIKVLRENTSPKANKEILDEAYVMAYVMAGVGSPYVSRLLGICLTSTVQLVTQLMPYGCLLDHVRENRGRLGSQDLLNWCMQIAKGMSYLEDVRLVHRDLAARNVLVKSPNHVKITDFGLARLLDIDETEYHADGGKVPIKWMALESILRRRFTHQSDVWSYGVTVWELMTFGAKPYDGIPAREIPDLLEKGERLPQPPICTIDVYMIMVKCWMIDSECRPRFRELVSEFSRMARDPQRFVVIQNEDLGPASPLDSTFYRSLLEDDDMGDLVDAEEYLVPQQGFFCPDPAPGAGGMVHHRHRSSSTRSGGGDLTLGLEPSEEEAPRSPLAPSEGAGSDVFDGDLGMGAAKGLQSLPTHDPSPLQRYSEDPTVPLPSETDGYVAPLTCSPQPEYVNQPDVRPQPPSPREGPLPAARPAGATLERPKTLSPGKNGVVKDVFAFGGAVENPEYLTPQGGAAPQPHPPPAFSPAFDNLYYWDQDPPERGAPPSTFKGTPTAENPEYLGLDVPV
Excerpt: A compound's ability in selectively inhibiting Her2 exon 20 YVMA insertion mutations can be assessed using Ba/F3 cells, a murine pro-B cell line, which have been transduced with Her2 Exon20 YVMA insertions. An expression vector, pLVX-IRES puro (Clontech) coding for […] (A775_G776ins YVMA), was transfected into HEK293 cells by the Trans-Lentiviral ORF Packaging System (Thermo Scientific), to produce virus encoding EGFR exon 20 insertions. Ba/F3 (DSMZ) cells maintained in RPMI 1640 medium supplemented with 10% fetal bovine serum, 200 μM L-glutamine/200 μg/mL penicillin/200 μg/mL streptomycin (Life Technology) and 10 ng/mL IL-3 (R&D system), were infected by EGFR Exon20 virus and subsequently selected by puromycin (Life Technology) selection and IL-3 depletion. Ba/F3 cells expressing Her2 Exon20 YVMA insertions (named Ba/F3-Her2 Exon20 YVMA) can proliferate in the absence of IL-3. The anti-proliferative activity of compounds was determined as follows: BaF3-Her2 Exon20 YVMA cells seeded in 96 well plates (2500 cells/well) were treated with test compound (dissolved in DMSO) at a series of concentrations (4-fold dilution, top concentration: 10,000 nM). The plates were incubated for 72 h in a 37° C. incubator with 5% CO2, and the number of viable cells in each well were measured indirectly by CellTiter 96@ Aqueous One Solution Cell Proliferation Assay (Promega; this assay is a colorimetric method for determining the number of viable cells through measurement of their metabolic activity by detection of enzymatic conversion of tetrazolium salts into blue formazan derivatives). Reagent (20 μL) was added into each well, and the plates were returned to the incubator for 2 h. The absorbance in each well was then measured at 490 nm using an Envision plate reader (Perkin Elmer).

Compound | EGFR exon 19 deletion and exon 20 T790M mutation IC50 [1] | IC50 [2] [nM] | IC50 [3] [nM] | IC50 [4] [nM]
C=CC(=O)Nc1cc(Nc2nccc(-c3c(N4CCN(C)C(=O)C4)n4c5c(cccc35)CCC4)n2)c(OC)cc1N(C)CCN(C)C [Example 94] | C (IC50 value for the indicated mutant between greater than about 500 to about 1 μM) | 100 to 500 | 100 to 500 | > 1000
C=CC(=O)Nc1cc(Nc2ncc(C(=O)OC)c(-c3cn4c5c(cccc35)CCC4)n2)c(OC)cc1N(C)CCN(C)C [Example 44, methyl 2-((5-acrylamido-4-((2-(dimethylamino)ethyl)(methyl)amino)-2-methoxyphenyl)amino)-4-(5,6-dihydro-4H-pyrrolo[3,2,1-ij]quinolin-1-yl)pyrimidin-5-carboxylate] | A (IC50 value for the indicated mutant below about 100 nM) | < 100 | < 100 | < 100
C=CC(=O)Nc1cc(Nc2ncc(C#N)c(-c3cn4c5c(cccc35)CCC4)n2)c(OC)cc1N1CC[C@H](N(C)C)C1 [Example 16, (S)-N-(5-((5-cyano-4-(5,6-dihydro-4H-pyrrolo[3,2,1-ij]quinolin-1-yl)pyrimidin-2-yl)amino)-2-(3-(dimethylamino)pyrrolidin-1-yl)-4-methoxyphenyl)acrylamide] | A (IC50 value for the indicated mutant below about 100 nM) | < 100 | < 100 | 100 to 500
C=CC(=O)Nc1cc(Nc2ncc(CC)c(-c3cn4c5c(cccc35)N(C)C(=O)C4)n2)c(OC)cc1N(C)CCN(C)C [Example 66, N-(2-((2-(dimethylamino)ethyl)(methyl)amino)-5-((5-ethyl-4-(1-methyl-2-oxo-2,3-dihydro-1H-pyrrolo[1,2,3-de]quinoxalin-6-yl)pyrimidin-2-yl)amino)-4-methoxyphenyl)acrylamide] | A (IC50 value for the indicated mutant below about 100 nM) | < 100 | < 100 | < 100
C=CC(=O)Nc1cc(Nc2ncc(CCC3CCCC3)c(-c3cn4c5c(cccc35)CCC4)n2)c(OC)cc1N(C)CCN(C)C [Example 35] | C (IC50 value for the indicated mutant between greater than about 500 to about 1 μM) | 100 to 500 | 500 to 1000 | 500 to 1000
C=CC(=O)Nc1cc(Nc2ncc(-c3cn(C)nc3C)c(-c3cn4c5c(cccc35)CCC4)n2)c(OC)cc1N(C)CCN(C)C [Example 100] | A (IC50 value for the indicated mutant below about 100 nM) | < 100 | < 100 | < 100
C=CC(=O)Nc1cc(Nc2ncc(CCC#N)c(-c3cn4c5c(cccc35)CCC4)n2)c(OC)cc1N(C)CCN(C)C [Example 41, N-(5-((5-(2-cyanoethyl)-4-(5,6-dihydro-4H-pyrrolo[3,2,1-ij]quinolin-1-ul)pyrimidin-2-yl)amino)-2-((2-(dimethylamino)ethyl)(methyl)amino)-4-methoxyphenyl)acrylamide] | A (IC50 value for the indicated mutant below about 100 nM) | < 100 | < 100 | < 100
C#Cc1cnc(Nc2cc(NC(=O)C=C)c(N(C)CCN(C)C)cc2OC)nc1-c1cn2c3c(cccc13)CCC2 [Example 31, N-(5-((4-(5,6-dihydro-4H-pyrrolo[3,2,1-ij]quinolin-1-yl)-5-ethynylpyrimidin-2-yl)amino)-2-((2-(dimethylamino)ethyl)(methyl)amino)-4-methoxyphenyl)acrylamide] | A (IC50 value for the indicated mutant below about 100 nM) | < 100 | < 100 | < 100
C=CC(=O)Nc1cc(Nc2nccc(-c3c(N4CCC(O)C4)n4c5c(cccc35)CCC4)n2)c(OC)cc1N(C)CCN(C)C (stereo not shown) [Example 61, N-(2-((2-(dimethylamino)ethyl)(methyl)amino)-5-((4-(2-(3-hydroxypyr4rolidin-1-yl)5,6-dihydro-4H-pyrrolo[3,2,1-ij]quinolin-1-yl)pyrimidin-2-yl)amino)-4-methoxyphenyl)acrylamide] | A (IC50 value for the indicated mutant below about 100 nM) | < 100 | < 100 | < 100
C=CC(=O)Nc1cc(Nc2ncc(OC(F)F)c(-c3cn4c5c(cccc35)CCC4)n2)c(OC)cc1N(C)CCN(C)C [Example 64, N-(5-((5-(difluoromethoxy)-4-(5,6-dihydro-4H-pyrrolo[3,2,1-ij]quinolin-1-yl)pyrimidin-2-yl)amino)-2-((2-(dimethylamino)ethyl)-(methyl)amino)-4-methoxyphenyl)acrylamide] | A (IC50 value for the indicated mutant below about 100 nM) | < 100 | < 100 | 100 to 500
C=CC(=O)Nc1cc(Nc2nccc(-c3c(N4CC[C@H](O)C4)n4c5c(cccc35)CCC4)n2)c(OC)cc1N(C)CCN(C)C [Example 75] | A (IC50 value for the indicated mutant below about 100 nM) | < 100 | < 100 | < 100
C=CC(=O)Nc1cc(Nc2ncc(OC)c(-c3cn4c5c(cccc35)CCC4)n2)c(OC)cc1N(C)CCN(C)C [Example 19, N-(5-((4-(5,6-dihydro-4H-pyrrolo[3,2,1-ij]quinolin-1-yl)-5-methoxypyrimidin-2-yl)amino)-2-((2-(dimethylamino)ethyl)(methyl)amino)-4-methoxyphenyl)acrylamide] | A (IC50 value for the indicated mutant below about 100 nM) | < 100 | < 100 | 100 to 500
C=CC(=O)Nc1cc(Nc2ncc(C(=O)OC)c(-c3nn4c5c(cccc35)OCC4)n2)c(OC)cc1N(C)CCN(C)C [Example 65, Methyl 2-((5-acrylamido-4-((2-(dimethylamino)ethyl)(methyl)amino)-2-methoxyphenyl)amino)-4-(2,3-dihydro-[1,4]oxazino[2,3,4-hi]indazol-6-yl)pyrimidine-5-carboxylate] | A (IC50 value for the indicated mutant below about 100 nM) | < 100 | < 100 | < 100
